molecular target: T1, human HSL (Homo sapiens, UniProt Q05469); test: Human Hormone-Sensitive Lipase (HSL) Enzyme Inhibition Assay; format: biochemical; conditions: colorimetric assay, 2,3-dimercapto-1-propanol tributyrate (DMPT) substrate, 37° C. for 20 minutes, absorbance at 405 nm; read-out: HSL hum IC50
T1 construct: overlapping PCR to generate a full length human HSL ORF with a 3′-His6 tag; His6 (C); made in house; host or cells: High 5 insect cells (baculovirus, pFast-BAC)
T1 sequence (Q05469 1-1076): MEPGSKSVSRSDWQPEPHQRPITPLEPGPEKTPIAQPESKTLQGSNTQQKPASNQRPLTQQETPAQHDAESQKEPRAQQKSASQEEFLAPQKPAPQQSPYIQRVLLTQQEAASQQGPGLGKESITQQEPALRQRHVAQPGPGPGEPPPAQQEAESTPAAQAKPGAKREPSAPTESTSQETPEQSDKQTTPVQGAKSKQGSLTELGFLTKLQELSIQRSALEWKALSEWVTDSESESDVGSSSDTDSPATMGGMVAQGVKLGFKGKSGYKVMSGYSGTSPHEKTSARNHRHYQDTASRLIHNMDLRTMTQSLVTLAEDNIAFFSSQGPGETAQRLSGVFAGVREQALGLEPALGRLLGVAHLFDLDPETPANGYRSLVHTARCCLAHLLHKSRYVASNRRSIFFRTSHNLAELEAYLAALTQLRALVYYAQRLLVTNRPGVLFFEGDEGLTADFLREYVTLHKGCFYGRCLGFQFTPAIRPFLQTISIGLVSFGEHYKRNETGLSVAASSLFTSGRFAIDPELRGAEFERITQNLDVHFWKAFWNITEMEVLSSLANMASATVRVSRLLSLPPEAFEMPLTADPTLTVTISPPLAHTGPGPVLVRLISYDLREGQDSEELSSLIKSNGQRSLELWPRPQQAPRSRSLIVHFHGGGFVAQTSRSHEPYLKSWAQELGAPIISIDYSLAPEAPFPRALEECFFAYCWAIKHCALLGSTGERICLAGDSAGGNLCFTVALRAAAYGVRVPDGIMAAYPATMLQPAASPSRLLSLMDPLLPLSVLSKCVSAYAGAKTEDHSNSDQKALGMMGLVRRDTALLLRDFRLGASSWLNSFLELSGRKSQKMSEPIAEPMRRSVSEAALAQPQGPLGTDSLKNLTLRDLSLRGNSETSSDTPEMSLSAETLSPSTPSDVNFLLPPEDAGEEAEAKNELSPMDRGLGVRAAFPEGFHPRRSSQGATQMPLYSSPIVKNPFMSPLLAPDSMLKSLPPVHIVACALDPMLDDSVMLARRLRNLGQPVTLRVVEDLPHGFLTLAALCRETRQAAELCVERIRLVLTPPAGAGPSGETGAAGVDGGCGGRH
In short: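 Colorimetric thioester hydrolysis: compounds in DMSO series mixed with DMPT (1.5 mM) in MOPS pH 7.2 with BSA, then baculovirus-expressed His6-tagged full-length human HSL added, 37° C, 20 min. DTNB plus detergents added, 15 min room temperature, absorbance at 405 nm.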

Row | Compound | IC50 [µM]
1 | Cc1nc2ccc(N3CCC4(CCN(S(=O)(=O)c5ccccc5Cl)CC4)C3=O)cc2s1 [Example 127, 8-(2-Chloro-benzenesulfonyl)-2-(2-methyl-benzothiazol-6-yl)-2,8-diaza-spiro[4.5]decan-1-one] | 0.06
2 | Cn1cc2cc(N3CCC4(CCN(S(=O)(=O)c5ccccc5Cl)CC4)C3=O)ccc2n1 [Example 131, 8-(2-Chloro-benzenesulfonyl)-2-(2-methyl-2H-indazol-5-yl)-2,8-diaza-spiro[4.5]decan-1-one] | 0.57
3 | O=C1N(c2ccc(Oc3cccnc3)cc2)CCC12CCN(S(=O)(=O)c1ccccc1Cl)CC2 [Example 132, 8-(2-Chloro-benzenesulfonyl)-2-[4-(pyridin-3-yloxy)-phenyl]-2,8-diaza-spiro[4.5]decan-1-one] | 0.28
4 | O=C1N(c2ccc(OCC3CCCC3)cc2)CCC12CCN(S(=O)(=O)c1ccccc1Cl)CC2 [Example 133, 8-(2-Chloro-benzenesulfonyl)-2-(4-cyclopentylmethoxy-phenyl)-2,8-diaza-spiro[4.5]decan-1-one] | 0.6
5 | N#CCc1ccc(N2CCC3(CCN(S(=O)(=O)c4ccccc4Cl)CC3)C2=O)cc1 [Example 135, {4-[8-(2-Chloro-benzenesulfonyl)-1-oxo-2,8-diaza-spiro[4.5]dec-2-yl]-phenyl}-acetonitrile] | 0.09
6 | Cc1nc(Cc2ccc(N3CCC4(CCN(S(=O)(=O)c5ccccc5Cl)CC4)C3=O)cc2)no1 [Example 136, 8-(2-Chloro-benzenesulfonyl)-2-[4-(5-methyl-[1,2,4]oxadiazol-3-ylmethyl)-phenyl]-2,8-diaza-spiro[4.5]decan-1-one] | 0.08
7 | Cc1nnc(Cc2ccc(N3CCC4(CCN(S(=O)(=O)c5ccccc5Cl)CC4)C3=O)cc2)o1 [Example 137, 8-(2-Chloro-benzenesulfonyl)-2-[4-(5-methyl-[1,3,4]oxadiazol-2-ylmethyl)-phenyl]-2,8-diaza-spiro[4.5]decan-1-one] | 0.22
8 | O=C1N(c2ccc(Cc3nnc(C(F)(F)F)o3)cc2)CCC12CCN(S(=O)(=O)c1ccccc1Cl)CC2 [Example 138, 8-(2-Chloro-benzenesulfonyl)-2-[4-(5-trifluoromethyl-[1,3,4]oxadiazol-2-ylmethyl)-phenyl]-2,8-diaza-spiro[4.5]decan-1-one] | 0.53
9 | CC(C)(C)CS(=O)(=O)N1CCC2(CCN(c3ccc(OCCC(F)(F)F)cc3)C2=O)CC1 [Example 139, 8-(Neopentylsulfonyl)-2-(4-(3,3,3-trifluoropropoxy)phenyl)-2,8-diazaspiro[4.5]decan-1-one] | 0.31
10 | O=C1N(c2ccc(CO)cc2)CCC12CCN(S(=O)(=O)c1ccccc1Cl)CC2 [Example 141, 8-(2-Chloro-benzenesulfonyl)-2-(4-hydroxymethyl-phenyl)-2,8-diaza-spiro[4.5]decan-1-one] | 0.36
11 | CCc1ccc(N2CCC3(CCN(S(=O)(=O)c4ccccc4N4CCCC4=O)CC3)C2=O)cc1 [Example 143, 2-(4-Ethyl-phenyl)-8-[2-(2-oxo-pyrrolidin-1-yl)-benzenesulfonyl]-2,8-diaza-spiro[4.5]decan-1-one] | 0.17
12 | O=C1N(c2ccc(/C=C/C3CC3)cc2)CCC12CCN(S(=O)(=O)c1ccccc1OC(F)(F)F)CC2 [Example 145, 2-[4-((E)-2-Cyclopropyl-vinyl)-phenyl]-8-(2-trifluoromethoxy-benzenesulfonyl)-2,8-diaza-spiro[4.5]decan-1-one] | 0.12
13 | COCCCc1ccc(N2CCC3(CCN(S(=O)(=O)c4ccccc4OC(F)(F)F)CC3)C2=O)cc1 [Example 146, 2-[4-(3-Methoxy-propyl)-phenyl]-8-(2-trifluoromethoxy-benzenesulfonyl)-2,8-diaza-spiro[4.5]decan-1-one] | 0.05
14 | O=C1N(c2ccc(CCC3CC3)cc2)CCC12CCN(S(=O)(=O)c1ccccc1OC(F)(F)F)CC2 [Example 147, 2-[4-(2-Cyclopropyl-ethyl)-phenyl]-8-(2-trifluoromethoxy-benzenesulfonyl)-2,8-diaza-spiro[4.5]decan-1-one] | 0.06
15 | O=C1N(c2ccc(COCC3CC3)cc2)CCC12CCN(S(=O)(=O)c1ccccc1Cl)CC2 [Example 148, 8-(2-Chloro-benzenesulfonyl)-2-(4-cyclopropylmethoxymethyl-phenyl)-2,8-diaza-spiro[4.5]decan-1-ones] | 0.09
16 | CC(=O)c1ccc(N2CCC3(CCN(S(=O)(=O)c4ccccc4Cl)CC3)C2=O)cc1 [Example 151, 2-(4-Acetyl-phenyl)-8-(2-chloro-benzenesulfonyl)-2,8-diaza-spiro[4.5]decan-1-one] | 0.05
17 | CC(O)c1ccc(N2CCC3(CCN(S(=O)(=O)c4ccccc4Cl)CC3)C2=O)cc1 (centres unmarked) [Example 153, 8-(2-Chloro-benzenesulfonyl)-2-[4-(1-hydroxy-ethyl)-phenyl]-2,8-diaza-spiro[4.5]decan-1-one] | 0.1

Results, then the compound that gave them:

Row | IC50 [µM] | Compound
18 | 0.02 | CC(Oc1ccc(N2CCC3(CCN(S(=O)(=O)c4ccccc4Cl)CC3)C2=O)cc1)C(F)(F)F (centres unmarked) [Example 125, 8-(2-Chloro-benzenesulfonyl)-2-[4-(2,2,2-trifluoro-1-methyl-ethoxy)-phenyl]-2,8-diaza-spiro[4.5]decan-1-one]
19 | 0.03 | CCn1ncc2cc(N3CCC4(CCN(S(=O)(=O)c5ccccc5Cl)CC4)C3=O)ccc21 [Example 126, 8-(2-Chloro-benzenesulfonyl)-2-(1-ethyl-1H-indazol-5-yl)-2,8-diaza-spiro[4.5]decan-1-one]
20 | 0.02 | O=C1N(c2ccc(OC3CCCC3)cc2)CCC12CCN(S(=O)(=O)c1ccccc1Cl)CC2 [Example 128, 8-(2-Chloro-benzenesulfonyl)-2-(4-cyclopentyloxy-phenyl)-2,8-diaza-spiro[4.5]decan-1-one]
21 | 0.04 | O=C1N(c2ccc(OC3CCOC3)cc2)CCC12CCN(S(=O)(=O)c1ccccc1Cl)CC2 (centres unmarked) [Example 129, 8-(2-Chloro-benzenesulfonyl)-2-[4-(tetrahydro-furan-3-yloxy)-phenyl]-2,8-diaza-spiro[4.5]decan-1-one]
22 | 0.05 | Cn1ncc2cc(N3CCC4(CCN(S(=O)(=O)c5ccccc5Cl)CC4)C3=O)ccc21 [Example 130, 8-(2-Chloro-benzenesulfonyl)-2-(1-methyl-1H-indazol-5-yl)-2,8-diaza-spiro[4.5]decan-1-one]
23 | 0.05 | CCOC(=O)Cc1ccc(N2CCC3(CCN(S(=O)(=O)c4ccccc4Cl)CC3)C2=O)cc1 [Example 134, {4-[8-(2-Chloro-benzenesulfonyl)-1-oxo-2,8-diaza-spiro[4.5]dec-2-yl]-phenyl}-acetic acid ethyl ester]
24 | 0.04 | CS(=O)(=O)c1ccc(N2CCC3(CCN(S(=O)(=O)c4ccccc4Cl)CC3)C2=O)cc1 [Example 140, 8-(2-Chloro-benzenesulfonyl)-2-(4-methanesulfonyl-phenyl)-2,8-diaza-spiro[4.5]decan-1-one]
25 | 0.04 | COCc1ccc(N2CCC3(CCN(S(=O)(=O)c4ccccc4Cl)CC3)C2=O)cc1 [Example 142, 8-(2-Chloro-benzenesulfonyl)-2-(4-methoxymethyl-phenyl)-2,8-diaza-spiro[4.5]decan-1-one]
26 | 0.05 | COC/C=C/c1ccc(N2CCC3(CCN(S(=O)(=O)c4ccccc4OC(F)(F)F)CC3)C2=O)cc1 [Example 144, 2-[4-((E)-3-Methoxy-propenyl)-phenyl]-8-(2-trifluoromethoxy-benzenesulfonyl)-2,8-diaza-spiro[4.5]decan-1-one]
27 | 0.04 | CCOCc1ccc(N2CCC3(CCN(S(=O)(=O)c4ccccc4Cl)CC3)C2=O)cc1 [Example 149, 8-(2-Chloro-benzenesulfonyl)-2-(4-ethoxymethyl-phenyl)-2,8-diaza-spiro[4.5]decan-1-one]
28 | 0.04 | COC(=O)c1ccc(N2CCC3(CCN(S(=O)(=O)c4ccccc4Cl)CC3)C2=O)cc1 [Example 150, 8 4-[8-(2-Chloro-benzenesulfonyl)-1-oxo-2,8-diaza-spiro[4.5]dec-2-yl]-benzoic acid methyl ester]
29 | 0.02 | O=C1N(c2ccc(C(O)C(F)(F)F)cc2)CCC12CCN(S(=O)(=O)c1ccccc1Cl)CC2 (centres unmarked) [Example 152, 8-(2-Chloro-benzenesulfonyl)-2-[4-(2,2,2-trifluoro-1-hydroxy-ethyl)-phenyl]-2,8-diaza-spiro[4.5]decan-1-one]

Source: patent US8329904B2, “Azacyclic derivatives” (Hoffmann-La Roche Inc., priority 2009, dated 2012)
